From PubChem BioAssay AID192 (DTP/NCI, 2004)
Several values for one entry are separate records, joined by “and”; a condition that tells them apart may be missing. Equal values may be shown once. Toxic doses and inconclusive results are not listed.

System: BDF1 mice, B16 melanoma ip, median survival T/C
Assay: NCI In Vivo Anticancer Drug Screen. Data for tumor model B16 Melanoma (intraperitoneal) in B6D2F1 (BDF1) mice
Conditions: endpoint: median survival time, higher = longer survival
How it was run: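 Read-out: survival or tumor size, given as treated/control ratio. Controls received vehicle only; animals bore transplantable tumors.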

[1] = dose: 50.0 mg/kg/injection, schedule: Q01DX009 (ip), vehicle: saline with Tween-80
[2] = dose: 100.0 mg/kg/injection, schedule: Q01DX009 (ip), vehicle: saline with Tween-80
[3] = dose: 200.0 mg/kg/injection, schedule: Q04DX003 (ip), vehicle: Klucel (hydroxypropylcellulose) (HPC)
[4] = dose: 3.12 mg/kg/injection, schedule: Q01DX009 (ip), vehicle: Klucel (hydroxypropylcellulose) (HPC)
[5] = dose: 6.25 mg/kg/injection, schedule: Q01DX009 (ip), vehicle: Klucel (hydroxypropylcellulose) (HPC)
[6] = dose: 12.5 mg/kg/injection, schedule: Q01DX009 (ip), vehicle: Klucel (hydroxypropylcellulose) (HPC)
[7] = dose: 25.0 mg/kg/injection, schedule: Q01DX009 (ip), vehicle: Klucel (hydroxypropylcellulose) (HPC)
[8] = dose: 25.0 mg/kg/injection, schedule: Q01DX009 (ip), vehicle: saline with Tween-80
[9] = dose: 50.0 mg/kg/injection, schedule: Q01DX009 (ip), vehicle: Klucel (hydroxypropylcellulose) (HPC)
[10] = dose: 100.0 mg/kg/injection, schedule: Q01DX009 (ip), vehicle: Klucel (hydroxypropylcellulose) (HPC)
[11] = dose: 200.0 mg/kg/injection, schedule: Q01DX009 (ip), vehicle: Klucel (hydroxypropylcellulose) (HPC)
[12] = dose: 100.0 mg/kg/injection, schedule: Q01DX009 (ip), vehicle: saline
[13] = dose: 400.0 mg/kg/injection, schedule: Q01DX009 (ip), vehicle: Klucel (hydroxypropylcellulose) (HPC)
[14] = dose: 200.0 mg/kg/injection, schedule: Q01DX009 (ip), vehicle: saline

`Cc1ccc(NC(=O)c2ccccc2)cc1[As]=[As]c1cc(NC(=O)c2ccccc2)ccc1C` (centres undefined) was tested, and the T/C (dose: 0.04 mg/kg/injection, schedule: Q01DX009 (ip), vehicle: saline with Tween-80) was 107 % of control, the T/C (dose: 0.08 mg/kg/injection, schedule: Q01DX009 (ip), vehicle: saline with Tween-80) was 102 % of control and the T/C (dose: 0.08 mg/kg/injection, schedule: Q04DX003 (ip), vehicle: saline) was 101 % of control. For the same compound, the T/C (dose: 0.15 mg/kg/injection, schedule: Q01DX009 (ip), vehicle: saline with Tween-80) was 104 % of control, the T/C (dose: 0.15 mg/kg/injection, schedule: Q04DX003 (ip), vehicle: saline) was 91 % of control and the T/C (dose: 0.16 mg/kg/injection, schedule: Q04DX003 (ip), vehicle: Klucel (hydroxypropylcellulose) (HPC)) was 101 % of control. The T/C (dose: 0.3 mg/kg/injection, schedule: Q01DX009 (ip), vehicle: saline with Tween-80) was 100 % of control, the T/C (dose: 0.3 mg/kg/injection, schedule: Q04DX003 (ip), vehicle: saline) was 92 % of control and the T/C (dose: 0.31 mg/kg/injection, schedule: Q04DX003 (ip), vehicle: Klucel (hydroxypropylcellulose) (HPC)) was 98 % of control. For the same compound, the T/C (dose: 0.6 mg/kg/injection, schedule: Q04DX003 (ip), vehicle: saline) was 91 % of control, the T/C (dose: 0.63 mg/kg/injection, schedule: Q04DX003 (ip), vehicle: saline with Tween-80) was 89 % of control and the T/C (dose: 2.5 mg/kg/injection, schedule: Q04DX003 (ip), vehicle: saline with Tween-80) was 161 % of control. The T/C (dose: 5.0 mg/kg/injection, schedule: Q04DX003 (ip), vehicle: saline with Tween-80) was 105 % of control.

For `Cc1ccc(S(=O)(=O)Oc2ccc(-c3ccc(OS(=O)(=O)c4ccc(C)cc4)cc3)cc2)cc1`, the T/C [1] was 105 % of control and the T/C [2] was 90 % of control.

For `CNC(=O)Nc1cccc2c(=O)[nH][nH]c(=O)c12`, the T/C (dose: 100.0 mg/kg/injection, schedule: Q04DX003 (ip), vehicle: Klucel (hydroxypropylcellulose) (HPC)) was 112 % of control, the T/C [3] was 102 % of control and the T/C (dose: 400.0 mg/kg/injection, schedule: Q04DX003 (ip), vehicle: Klucel (hydroxypropylcellulose) (HPC)) was 91 % of control.

`CCc1c(CC(=O)O)c2cc(C)ccc2n1Cc1ccc(Cl)cc1` was tested, and the T/C [4] was 110 % of control and 119 % of control, the T/C [5] was 106 % of control and 114 % of control and the T/C [6] was 91 % of control and 111 % of control. The T/C [7] was 88 % of control and 106 % of control and 97 % of control, the T/C [8] was 97 % of control and the T/C [9] was 101 % of control and 104 % of control and 105 % of control. For the same compound, the T/C [1] was 97 % of control, the T/C (dose: 50.0 mg/kg/injection, schedule: Q04DX003 (ip), vehicle: saline with Tween-80) was 104 % of control and the T/C [10] was 88 % of control and 95 % of control and 90 % of control. The T/C [2] was 88 % of control and the T/C (dose: 100.0 mg/kg/injection, schedule: Q04DX003 (ip), vehicle: saline with Tween-80) was 88 % of control.

In the case of `Cc1ccc(CNc2ccc(C)cc2)cc1`, the T/C [10] is reported as 100 % of control and the T/C [11] is reported as 100 % of control.

With `COc1ccc(C2c3cc4c(c(OC)c3CC3OCC(=O)C32)OCO4)cc1OC` (centres undefined) the T/C [6] was 102 % of control, the T/C [7] was 102 % of control and the T/C [9] was 117 % of control.

`CCC1(CC)OC2=C(CC(C#N)(C#N)C(C#N)(C#N)C2)O1` was tested, and the T/C (dose: 2.5 mg/kg/injection, schedule: Q04DX003 (ip), vehicle: Klucel (hydroxypropylcellulose) (HPC)) was 96 % of control, the T/C (dose: 3.12 mg/kg/injection, schedule: Q04DX003 (ip), vehicle: Klucel (hydroxypropylcellulose) (HPC)) was 100 % of control and the T/C (dose: 4.0 mg/kg/injection, schedule: Q04DX003 (ip), vehicle: Klucel (hydroxypropylcellulose) (HPC)) was 98 % of control. The T/C (dose: 9.5 mg/kg/injection, schedule: Q04DX003 (ip), vehicle: Klucel (hydroxypropylcellulose) (HPC)) was 96 % of control and the T/C (dose: 12.5 mg/kg/injection, schedule: Q04DX003 (ip), vehicle: Klucel (hydroxypropylcellulose) (HPC)) was 88 % of control.

`Cc1cc2c(cc1C)C(=O)c1ccccc1C2=O` was tested, and the T/C (dose: 25.0 mg/kg/injection, schedule: Q01DX009 (ip), vehicle: saline) was 91 % of control, the T/C (dose: 50.0 mg/kg/injection, schedule: Q01DX009 (ip), vehicle: saline) was 97 % of control and the T/C [12] was 94 % of control.

With `O=C(CBr)c1ccc(F)cc1` the T/C [4] was 106 % of control, the T/C [5] was 91 % of control and the T/C [6] was 99 % of control.

`CC(=O)N(C)C(C(=O)N1CC(C)CC1C(=O)N(C)C1C(=O)NC(CC(C)C)C(=O)N2CC(C)CC2C(=O)NC(CC(C)C)C(=O)N(C)C(C(C)C)C(=O)N2CCCC2C(=O)N(C)C(CC(C)C)C(=O)NCC(=O)OC1C)C(C)C` (centres undefined) was tested, and the T/C (dose: 18.75 mg/kg/injection, schedule: Q01DX009 (ip), vehicle: Klucel (hydroxypropylcellulose) (HPC)) was 94 % of control, the T/C (dose: 37.5 mg/kg/injection, schedule: Q01DX009 (ip), vehicle: Klucel (hydroxypropylcellulose) (HPC)) was 97 % of control and the T/C (dose: 75.0 mg/kg/injection, schedule: Q01DX009 (ip), vehicle: Klucel (hydroxypropylcellulose) (HPC)) was 94 % of control.

For `CC1CCC2(OC1)OC1C(O)C3C4CCC5CC(OC6OC(CO)C(OC7OC(CO)C(O)C(OC8OCC(O)C(O)C8O)C7OC7OC(CO)C(O)C(OC8OC(CO)C(O)C(O)C8O)C7O)C(O)C6O)C(O)CC5(C)C4CCC3(C)C1C2C` (centres undefined), the T/C (dose: 0.62 mg/kg/injection, schedule: Q01DX009 (ip), vehicle: saline) was 109 % of control, the T/C (dose: 1.25 mg/kg/injection, schedule: Q01DX009 (ip), vehicle: saline) was 99 % of control and the T/C (dose: 2.5 mg/kg/injection, schedule: Q01DX009 (ip), vehicle: saline) was 103 % of control. For the same compound, the T/C (dose: 5.0 mg/kg/injection, schedule: Q01DX009 (ip), vehicle: saline) was 92 % of control.

In the case of `Cc1ccc(C)c(NC(=O)Nc2ccccc2C)c1`, the T/C (dose: 50.0 mg/kg/injection, schedule: Q04DX003 (ip), vehicle: Klucel (hydroxypropylcellulose) (HPC)) is reported as 87 % of control and the T/C [3] is reported as 87 % of control.

For `O=c1[nH]c(=S)[nH]cc1Oc1ccc(I)cc1`, the T/C [6] was 90 % of control, the T/C [7] was 86 % of control and the T/C [9] was 91 % of control.

In the case of `O=C(CCCCC(=O)Nc1ccc(C2=NCCN2)cc1)Nc1ccc(C2=NCCN2)cc1`, the T/C (dose: 50.0 mg/kg/injection, schedule: Q04DX003 (ip), vehicle: saline) is reported as 96 % of control, the T/C (dose: 100.0 mg/kg/injection, schedule: Q04DX003 (ip), vehicle: saline) is reported as 93 % of control and the T/C (dose: 200.0 mg/kg/injection, schedule: Q04DX003 (ip), vehicle: saline) is reported as 90 % of control. The T/C (dose: 400.0 mg/kg/injection, schedule: Q04DX003 (ip), vehicle: saline) was 86 % of control.

In the case of `CCOC(C)C(/C=N/NC(N)=S)=NNC(N)=S` (centres undefined), the T/C [1] is reported as 90 % of control.

For `COc1c(Br)c2c(c(OC)c1OC)-c1ccc(OC)c(=O)cc1C(NC(C)=O)CC2` (centres undefined), the T/C (dose: 0.38 mg/kg/injection, schedule: Q01DX009 (ip), vehicle: Klucel (hydroxypropylcellulose) (HPC)) was 113 % of control, the T/C (dose: 0.75 mg/kg/injection, schedule: Q01DX009 (ip), vehicle: Klucel (hydroxypropylcellulose) (HPC)) was 115 % of control and the T/C (dose: 1.5 mg/kg/injection, schedule: Q01DX009 (ip), vehicle: Klucel (hydroxypropylcellulose) (HPC)) was 112 % of control. The T/C (dose: 3.0 mg/kg/injection, schedule: Q01DX009 (ip), vehicle: Klucel (hydroxypropylcellulose) (HPC)) was 118 % of control.

For `Cc1cccc(NC(=O)c2ccccc2)c1C`, the T/C [8] was 99 % of control, the T/C [1] was 99 % of control and the T/C [2] was 93 % of control.

With `O=C(OCCOCCOCCOC(=O)c1ccccc1)c1ccccc1` the T/C [13] was 121 % of control.

`FC(F)(F)c1ccc2c(c1)N(CCCN1CCN(CCN3CCOCC3)CC1)c1ccccc1S2` was tested, and the T/C (dose: 0.37 mg/kg/injection, schedule: Q01DX009 (ip), vehicle: saline) was 97 % of control, the T/C (dose: 0.75 mg/kg/injection, schedule: Q01DX009 (ip), vehicle: saline) was 87 % of control and the T/C (dose: 1.5 mg/kg/injection, schedule: Q01DX009 (ip), vehicle: saline) was 115 % of control. For the same compound, the T/C (dose: 3.0 mg/kg/injection, schedule: Q01DX009 (ip), vehicle: saline) was 112 % of control.

With `COc1ccc(NC(=O)Oc2ccc(OC)cc2)cc1` the T/C [10] was 90 % of control, the T/C [11] was 93 % of control and the T/C [13] was 93 % of control.

`CC(=N/NC(N)=S)/C(C)=N/NC(N)=S` was tested, and the T/C [12] was 118 % of control and the T/C [14] was 97 % of control.

For `CCOC(=O)Nc1nccs1`, the T/C [8] was 97 % of control, the T/C [1] was 89 % of control and the T/C [2] was 89 % of control. For the same compound, the T/C (dose: 200.0 mg/kg/injection, schedule: Q01DX009 (ip), vehicle: saline with Tween-80) was 89 % of control.

With `O=c1[nH]cnc2c1cnn2-c1ccccc1` the T/C [10] was 90 % of control, the T/C [11] was 90 % of control and the T/C [13] was 103 % of control.

With `NC(=O)Nc1ccccc1` the T/C [12] was 97 % of control, the T/C [14] was 100 % of control and the T/C (dose: 400.0 mg/kg/injection, schedule: Q01DX009 (ip), vehicle: saline) was 104 % of control.
